The source of these data is patent US20090170917A1, “Acid Mimic Compounds for the Inhibition of Isoprenyl-S-Cysteinyl Methyltransferase” (priority 2007, published 2009).

For test [1], the system named is TPA-treated mouse ears (edema). Kind of test: Mouse ear model of TPA-induced contact inflammation: edema inhibition (ear thickness). The class given is in vivo. The settings on record: for edema inhibition (statement in words): in vivo activity, no dose stated; for % Inhibition Edema: TPA-treated mouse ear, 24 hours. An excerpt: (§1) G. et al., Anti-inflammatory Drugs, Clin. Pharmacol. Ther. 16, 900-4 (1974); Young et al., Tachyphylaxis in 12-Otetradecanoylphorbolacetate-and Arachidonic Acid-Induced Ear Edema; J. Invest. Dermatol. 80:48-52, (1983); Tramposch et al., In Vivo Models of Inflammation, (Morgan D W, Marshall L A eds), Birkhaüser Verlag: Basel, pp 179-204, 1999; and Gordon et al., Topical N-Acetyl-S-Farnesyl-L-Cysteine Inhibits Mouse Skin Inflammation, and Unlike Dexamethasone, Its Effects Are Restricted to the Application Site, J. Invest. Dermatol., 128(3):643-54, 2008 March)]. Moreover, the mouse ear model has been used by various groups to identify and compare members of differing classes of anti-inflammatory agents with multiple mechanisms of action (reviewed in Tramposch et al., 1999, supra).
The protocol for inducing in vivo acute contact inflammation on the ears of live mice has been described elsewhere (reviewed in Tramposch, 1999, supra). In brief, mice were sedated and their ears were treated with 1.2 μg/20 uL TPA (i.e., tetradecanoylphorbol-13-acetate). […] After 24 hours, the mice were sacrificed and edema was measured by taking micrometer readings of each ear. The percent inhibition of edema was determined by taking the average ear thickness of compound-treated ears and dividing it by the average thickness of 12 ears that only received TPA and subtracting that value from 100%. These values were corrected for the thickness of normal, non TPA-treated mouse ears of littermate controls. […] ED50 values were calculated as described in Gordon et al., “Topical N-acetyl-5-farnesyl-L-cysteine Inhibits Mouse Skin Inflammation, and Unlike Dexamethasone, its Effects Are Restricted to the Application Site”, J. Invest. Derm., Vol. 128 pp. 643-654 (2008).

The subject of test [2] is TPA-treated mouse ears (erythema). The test can be described thus: Mouse ear model of TPA-induced contact inflammation: erythema inhibition (Δa* redness, chroma meter). The format is in vivo. To be noted: for erythema inhibition (statement in words): in vivo activity, no dose stated; for % Inhibition Erythema: TPA-treated mouse ear, 24 hours.
Description: as §1
Another well documented biomarker of skin inflammation is skin redness, termed erythema, which is caused by capillary congestion and dilation in response to various chemical and environmental insults (see Denig, N. I. et al., Irritant Contact Dermatitis. Clues to Causes, Clinical Characteristics, and Control, Postgrad Med., May (1998); 103(5):199-200, 207-8, 212-3). […] The percent inhibition of erythema was determined by taking the average Δa* redness value of compound-treated ears and dividing it by the average Δa* value of 12 ears that only received TPA and subtracting that value from 100%. These values were corrected for the Δa* value of non TPA-treated mouse ears of littermate controls. […] Gordon et al., “Topical N-acetyl-5-farnesyl-L-cysteine Inhibits Mouse Skin Inflammation, and Unlike Dexamethasone, its Effects Are Restricted to the Application Site”, J. Invest. Derm., Vol. 128 pp. 643-654 (2008).

Test [3] concerns dermal neutrophil infiltration, neutrophil marker myeloperoxidase (MPO). The test can be described thus: Mouse ear model of TPA-induced contact inflammation: MPO inhibition (dermal neutrophil infiltration). The format is in vivo. The settings on record: for MPO (myeloperoxidase) inhibition (statement in words): in vivo activity, no dose stated; for % Inhibition MPO: TPA-treated mouse ear, 24 hours.
Description: as §1
To assay for inhibition of dermal neutrophil infiltration by S-isoprenyl and S-farnesyl cysteine compounds, a standard method was used (see Bradley et al., 1982, supra; Young et al., 1983, supra; De Young et al, “Edema and Cell Infiltration in the Phorbol Ester-treated Mouse Ear are Temporally Separate and can be Differentially Modulated by Pharmacologic Agents”, Agents Actions, 26(3-4): 335-41 (March 1989); and Rao et al. (1993) Comparative Evaluation of Arachidonic Acid (AA)-and Tetradecanoylphorbol Acetate (TPA)-Induced Dermal Inflammation, Inflammation 17:723-41). Briefly, we homogenized 6 mm biopsy punches taken from both compound-treated ears as well as TPA-treated and non-treated control groups. We quantitated the levels of MPO by a calorimetric reaction that was measured spectrophotometrically. The percent inhibition of neutrophil infiltration by each S-isoprenyl and S-farnesyl cysteine compound was determined by comparing the average MPO levels in the presence and absence of these compounds. […] Gordon et al., “Topical N-acetyl-5-farnesyl-L-cysteine Inhibits Mouse Skin Inflammation, and Unlike Dexamethasone, its Effects Are Restricted to the Application Site”, J. Invest. Derm., Vol. 128 pp. 643-654 (2008).

The target of test [4] is membrane-associated isoprenyl-5-cysteinyl methyltransferase (Homo sapiens, UniProt O60725). The settings on record: background statement; cited from earlier work.
membrane-associated isoprenyl-5-cysteinyl methyltransferase, sequence (O60725 whole entry): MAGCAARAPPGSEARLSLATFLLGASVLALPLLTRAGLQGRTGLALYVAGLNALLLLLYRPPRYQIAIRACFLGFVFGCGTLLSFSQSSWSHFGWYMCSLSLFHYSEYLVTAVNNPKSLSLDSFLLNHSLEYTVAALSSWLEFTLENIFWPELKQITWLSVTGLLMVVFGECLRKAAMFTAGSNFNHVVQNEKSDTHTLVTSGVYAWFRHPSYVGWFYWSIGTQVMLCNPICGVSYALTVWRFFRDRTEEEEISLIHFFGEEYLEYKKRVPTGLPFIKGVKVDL
The test system of the next test is dermal inflammation. To be noted: mice, background statement; cited from earlier work.
For test [5], the system named is neutrophil, macrophage, and platelet responses. The settings on record: in vitro, background statement; cited from earlier work.

`CC(=O)N[C@@H](CSC/C=C(\C)CC/C=C(\C)CCC=C(C)C)C(=O)NO` [Compound B]: the “edema inhibition (statement in words)” value in test [1] is “edema inhibition”. In addition, in test [1] (topical dose 0.8 mg/20 μL), the “% Inhibition Edema” value was “— 33.64 ± 3.03%”. For the same compound, in test [2], the “erythema inhibition (statement in words)” value is on record as “erythema inhibition”. In addition, in test [3], the “MPO (myeloperoxidase) inhibition (statement in words)” value was “MPO (myeloperoxidase) inhibition”. Besides, the “% Inhibition MPO” value in test [3] (topical dose 0.8 mg/20 μL) is on record as “— 87.45 ± 1.37%”.

As for `CNNC(=O)[C@H](CSC/C=C(\C)CC/C=C(\C)CCC=C(C)C)NC(C)=O` [Compound E], the “edema inhibition (statement in words)” value in test [1] is given as “edema inhibition”. The “% Inhibition Edema” value in test [1] (topical dose 0.8 mg/20 μL) is reported as “— 5.85 ± 7.02%”. Moreover, the “erythema inhibition (statement in words)” value in test [2] is listed as “erythema inhibition”. The “% Inhibition Erythema” value in test [2] (topical dose 0.8 mg/20 μL) is “— 7.68 ± 8.15%”. Moreover, the “MPO (myeloperoxidase) inhibition (statement in words)” value in test [3] is reported as “MPO (myeloperoxidase) inhibition”.

Turning to `CC(C)=CCC/C(C)=C/CC/C(C)=C/CSC[C@H](NC(=O)CCC(F)(F)F)C(=O)NN` [Compound F], the “edema inhibition (statement in words)” value in test [1] is listed as “edema inhibition”. Further, the “% Inhibition Edema” value in test [1] (topical dose 0.2 mg/20 μL) is on record as 7.86 ± 0.98 — %. In addition, in test [2], the “erythema inhibition (statement in words)” value is “erythema inhibition”. Further, in test [2] (topical dose 0.2 mg/20 μL), the “% Inhibition Erythema” value was 11.04 ± 7.28 — %. Also, in test [3], the “MPO (myeloperoxidase) inhibition (statement in words)” value was “MPO (myeloperoxidase) inhibition”. For the same compound, the “% Inhibition MPO” value in test [3] (topical dose 0.2 mg/20 μL) is reported as 21.33 ± 12.68 — %.

As to `CC(=O)N[C@@H](CSC/C=C(\C)CC/C=C(\C)CCC=C(C)C)C(=O)NN` [Compound A], in test [1], the “edema inhibition (statement in words)” value is “edema inhibition”. Also, the “% Inhibition Edema” value in test [1] (topical dose 0.8 mg/20 μL) was “— 42.36 ± 1.99%”. Besides, the “erythema inhibition (statement in words)” value in test [2] is “erythema inhibition”. In addition, the “MPO (myeloperoxidase) inhibition (statement in words)” value in test [3] is reported as “MPO (myeloperoxidase) inhibition”. The “% Inhibition MPO” value in test [3] (topical dose 0.8 mg/20 μL) is given as “— 93.53 ± 1.13%”.

Regarding `CC(=O)N[C@@H](CSCC=C(C)CCC=C(C)CCC=C(C)C)C(=O)O` [AFC, N-acetyl-5-farnesyl-L-cysteine], the “inhibition of isoprenyl-S-cysteinyl methyltransferase (mode)” value in test [4] is on record as “competitive inhibitor”. For the same compound, the “reduction of dermal inflammation” value with dermal inflammation is given as “effectively reduces dermal inflammation in mice”. For the same compound, the “block of neutrophil, macrophage and platelet responses” value in test [5] is “block some neutrophil, macrophage, and platelet responses in vitro”.

`CC(=O)NNC(=O)[C@H](CSC/C=C(\C)CC/C=C(\C)CCC=C(C)C)NC(C)=O` [Compound D]: in test [2], the “erythema inhibition (statement in words)” value is reported as “erythema inhibition”. Further, in test [3], the “MPO (myeloperoxidase) inhibition (statement in words)” value is “MPO (myeloperoxidase) inhibition”.

Turning to `CC(=O)N[C@@H](CSC/C=C(\C)CC/C=C(\C)CCC=C(C)C)C(=O)NNc1ccccc1` [Compound C], the “edema inhibition (statement in words)” value in test [1] was “edema inhibition”. Further, the “erythema inhibition (statement in words)” value in test [2] was “erythema inhibition”. Further, in test [2] (topical dose 0.8 mg/20 μL), the “% Inhibition Erythema” value is listed as “— 13.41 ± 11.92%”. Besides, the “MPO (myeloperoxidase) inhibition (statement in words)” value in test [3] is “MPO (myeloperoxidase) inhibition”.
